This note sets out measurements from patent US9707233B2, “Heterocyclylamines as PI3K inhibitors” (Incyte Corporation, priority 2011, dated 2017).

pIC50: −log10 of the molar value. Where a name gives a salt, the structure may show the parent alone.

Chain of PI3Kδ (p110δ/p85α) (O00329 whole entry): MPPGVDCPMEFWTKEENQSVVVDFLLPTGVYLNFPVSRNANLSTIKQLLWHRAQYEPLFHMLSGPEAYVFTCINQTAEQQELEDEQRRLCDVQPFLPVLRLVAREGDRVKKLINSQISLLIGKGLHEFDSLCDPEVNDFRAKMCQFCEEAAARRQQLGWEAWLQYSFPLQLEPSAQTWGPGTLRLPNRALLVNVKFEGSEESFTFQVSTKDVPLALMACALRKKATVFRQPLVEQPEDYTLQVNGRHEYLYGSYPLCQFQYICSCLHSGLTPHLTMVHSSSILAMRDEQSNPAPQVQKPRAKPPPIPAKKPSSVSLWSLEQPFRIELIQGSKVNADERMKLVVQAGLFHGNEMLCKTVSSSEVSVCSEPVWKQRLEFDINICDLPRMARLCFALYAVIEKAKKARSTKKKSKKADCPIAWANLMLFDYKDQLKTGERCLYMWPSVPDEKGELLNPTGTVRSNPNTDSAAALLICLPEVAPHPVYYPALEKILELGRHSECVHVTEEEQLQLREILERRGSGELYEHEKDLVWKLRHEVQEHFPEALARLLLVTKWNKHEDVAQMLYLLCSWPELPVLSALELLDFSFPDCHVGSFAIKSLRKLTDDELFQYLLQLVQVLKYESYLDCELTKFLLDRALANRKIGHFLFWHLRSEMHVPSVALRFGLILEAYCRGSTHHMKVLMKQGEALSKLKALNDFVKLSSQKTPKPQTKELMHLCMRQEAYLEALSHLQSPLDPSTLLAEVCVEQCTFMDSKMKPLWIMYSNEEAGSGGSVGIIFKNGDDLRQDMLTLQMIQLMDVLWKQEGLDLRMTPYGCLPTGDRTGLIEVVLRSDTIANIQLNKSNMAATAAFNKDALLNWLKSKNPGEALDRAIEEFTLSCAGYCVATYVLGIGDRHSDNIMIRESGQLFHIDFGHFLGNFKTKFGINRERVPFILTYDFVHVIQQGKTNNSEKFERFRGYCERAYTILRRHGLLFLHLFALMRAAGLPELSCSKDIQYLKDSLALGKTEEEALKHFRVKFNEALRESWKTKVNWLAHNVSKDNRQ
Chain of PI3Kδ (p110δ/p85α) (P27986 whole entry partner): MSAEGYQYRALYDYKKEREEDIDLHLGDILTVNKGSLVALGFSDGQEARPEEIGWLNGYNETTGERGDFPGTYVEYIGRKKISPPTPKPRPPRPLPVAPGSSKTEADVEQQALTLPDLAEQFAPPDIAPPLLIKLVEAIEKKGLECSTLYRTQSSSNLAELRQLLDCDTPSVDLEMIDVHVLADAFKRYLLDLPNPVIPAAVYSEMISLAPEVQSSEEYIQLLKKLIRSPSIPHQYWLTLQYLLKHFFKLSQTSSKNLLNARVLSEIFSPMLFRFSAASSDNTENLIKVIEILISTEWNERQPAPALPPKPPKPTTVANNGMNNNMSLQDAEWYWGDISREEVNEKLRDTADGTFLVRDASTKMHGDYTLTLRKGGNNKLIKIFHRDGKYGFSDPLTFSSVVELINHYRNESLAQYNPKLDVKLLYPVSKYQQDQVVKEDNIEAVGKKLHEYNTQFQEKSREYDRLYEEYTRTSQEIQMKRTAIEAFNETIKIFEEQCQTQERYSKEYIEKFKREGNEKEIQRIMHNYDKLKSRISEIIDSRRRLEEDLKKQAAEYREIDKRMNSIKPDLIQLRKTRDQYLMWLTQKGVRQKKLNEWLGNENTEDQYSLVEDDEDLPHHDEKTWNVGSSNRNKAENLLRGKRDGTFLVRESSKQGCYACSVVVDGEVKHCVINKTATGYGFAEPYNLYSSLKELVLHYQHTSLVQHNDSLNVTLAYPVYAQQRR
Chain of PI3Kδ (O00329 whole entry, canonical isoform): as the sequence (O00329 whole entry) above
Chain of PI3Kδ (P27986 whole entry partner, canonical isoform): as the sequence (P27986 whole entry partner) above

The target in one experiment is PI3Kδ (p110δ/p85α) (Homo sapiens (Human), UniProt O00329). The experiment in a line: PI3Kδ scintillation proximity assay (Example A3). Format: biochemical. The following applies: 20 μM ATP, 20 μM PIP2, 4 nM PI3Kδ; read-out: PI3Kδ SPA IC50. Put shortly:
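Human PI3Kδ (p110δ/p85α, 4 nM) with 20 μM PIP2 and 20 μM ATP plus [γ-33P]ATP in 20 mM MOPS pH 6.7, 10 mM MgCl2, 5 mM DTT, 0.03% CHAPS, 0.5% DMSO, room temperature. Reaction stopped with EDTA/excess ATP; product captured on WGA SPA beads and counted. IC50 from percent control activity vs log inhibitor.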
`CCOc1c(C(C)n2nc(C)c3c(N)ncnc32)cc(C)c(C#N)c1C1CN(CC(C)O)C1` (stereo in doubt) [Example 326, 4-[1-(4-amino-3-methyl-1H-pyrazolo[3,4-d]pyrimidin-1-yl)ethyl]-3-ethoxy-2-{1-[(2S)-2-hydroxypropyl]azetidin-3-yl}-6-methylbenzonitrile]: the pIC50 is not below 8.00.
As to `CCOc1c(C(C)n2nc(C)c3c(N)ncnc32)cc(Cl)c(C#N)c1C1CNC(=O)O1` (stereo not drawn) [323 (2nd peak), 4-[1-(4-amino-3-methyl-1H-pyrazolo[3,4-d]pyrimidin-1-yl)ethyl]-6-chloro-3-ethoxy-2-(2-oxo-1,3-oxazolidin-5-yl)benzonitrile], the pIC50 is not below 8.00.
As for `CCOc1c(C(C)n2nc(-c3ccn(C)n3)c3c(N)ncnc32)cc(Cl)c(C)c1-c1ccc(C(=O)N(C)C)nc1` (centres unmarked) [Example 50, 5-(3-{1-[4-amino-3-(1-methyl-1H-pyrazol-3-yl)-1H-pyrazolo[3,4-d]pyrimidin-1-yl]ethyl}-5-chloro-2-ethoxy-6-methylphenyl)-N,N-dimethylpyridine-2-carboxamide bis(trifluoroacetate)], the pIC50 is not below 8.00.
On to `COc1c(C(C)n2nc(C(F)F)c3c(N)ncnc32)cc(Cl)c(F)c1C1CN(C)C1` (centres unmarked) [Example 75, 1-{1-[5-Chloro-4-fluoro-2-methoxy-3-(1-methylazetidin-3-yl)phenyl]ethyl}-3-(difluoromethyl)-1H-pyrazolo[3,4-d]pyrimidin-4-amine], for which the pIC50 is not below 8.00.
In the case of `COc1c(C(C)n2nc(C)c3c(N)ncnc32)cc(Cl)c(C)c1C1CN(CC(N)=O)C1` (centres unmarked) [Example 111, 2-(3-{3-[1-(4-Amino-3-methyl-1H-pyrazolo[3,4-d]pyrimidin-1-yl)ethyl]-5-chloro-2-methoxy-6-methylphenyl}azetidin-1-yl)acetamide], the pIC50 is not below 8.00.
Still for that read-out and setting: next, `COc1c(C(C)n2nc(C)c3c(N)ncnc32)cc(Cl)c(C)c1C1CN(C(=O)[C@@H](C)O)C1` (stereo partly drawn) [Example 121, (2R)-1-(3-{3-[1-(4-Amino-3-methyl-1H-pyrazolo[3,4-d]pyrimidin-1-yl)ethyl]-5-chloro-2-methoxy-6-methylphenyl}azetidin-1-yl)-1-oxopropan-2-ol trifluoroacetate]: not below 8.00.
Consider `CCOc1c(C(C)n2nc(C)c3c(N)ncnc32)cc(Cl)c(F)c1C1CN(CCO)C1` (centres unmarked) [Example 144, 2-(3-{3-[1-(4-Amino-3-methyl-1H-pyrazolo[3,4-d]pyrimidin-1-yl)ethyl]-5-chloro-2-ethoxy-6-fluorophenyl}azetidin-1-yl)ethanol], for which the pIC50 was not below 8.00.
Turning to `CCOc1c(C(C)n2nc(C)c3c(N)ncnc32)cc(Cl)c(F)c1C1CN(CC(N)=O)C1` (centres unmarked) [Example 148, 2-(3-{3-[1-(4-Amino-3-methyl-1H-pyrazolo[3,4-d]pyrimidin-1-yl)ethyl]-5-chloro-2-ethoxy-6-fluorophenyl}azetidin-1-yl)acetamide], the pIC50 is not below 8.00.
With `COc1c(C(C)n2nc(C)c3c(N)ncnc32)cc(Cl)c(C)c1-c1cncc(C(=O)N2CC(C#N)C2)c1` (centres unmarked) [Example 177, 1-[(5-{3-[1-(4-amino-3-methyl-1H-pyrazolo[3,4-d]pyrimidin-1-yl)ethyl]-5-chloro-2-methoxy-6-methylphenyl}pyridin-3-yl)carbonyl]azetidine-3-carbonitrile], the pIC50 is not below 8.00.
Consider `CCOc1c(C(C)n2nc(C)c3c(N)ncnc32)cc(Cl)c(C)c1-c1cncc(C(=O)N(C)C)c1` (centres unmarked) [Example 196, 5-(3-(1-(4-amino-3-methyl-1H-pyrazolo[3,4-d]pyrimidin-1-yl)ethyl)-5-chloro-2-ethoxy-6-methylphenyl)-N,N-dimethylnicotinamide], for which the pIC50 was not below 8.00.
Consider `CCOc1c(C(C)n2nc(C)c3c(N)ncnc32)cc(Cl)c(C)c1-c1cncc(S(C)(=O)=O)c1` (centres unmarked) [Example 198, 1-(1-(5-chloro-2-ethoxy-4-methyl-3-(5-(methylsulfonyl)pyridin-3-yl)phenyl)ethyl)-3-methyl-1H-pyrazolo[3,4-d]pyrimidin-4-amine], for which the pIC50 was not below 8.00.
On the same count and under the same terms, next, `CCOc1c(C(C)n2nc(C)c3c(N)ncnc32)cc(Cl)c(C#N)c1C1CN(CC)C1` (centres unmarked) [Example 214, 4-[1-(4-Amino-3-methyl-1H-pyrazolo[3,4-d]pyrimidin-1-yl)ethyl]-6-chloro-3-ethoxy-2-(1-ethylazetidin-3-yl)benzonitrile]: not below 8.00.
The same measure, in the same setting: next, `CCOc1c(C(C)n2nc(C)c3c(N)ncnc32)cc(Cl)c(C#N)c1C1CN(C(C)C)C1` (centres unmarked) [Example 215, 4-[1-(4-Amino-3-methyl-1H-pyrazolo[3,4-d]pyrimidin-1-yl)ethyl]-6-chloro-3-ethoxy-2-(1-isopropylazetidin-3-yl)benzonitrile]: not below 8.00.
As to `CCOc1c(C(C)n2nc(C)c3c(N)ncnc32)cc(Cl)c(C#N)c1C1CN(CC(C)(C)O)C1` (centres unmarked) [Example 222, 4-[1-(4-Amino-3-methyl-1H-pyrazolo[3,4-d]pyrimidin-1-yl)ethyl]-6-chloro-3-ethoxy-2-[1-(2-hydroxy-2-methylpropyl)azetidin-3-yl]benzonitrile], the pIC50 was not below 8.00.
`CCOc1c(C(C)n2nc(C)c3c(N)ncnc32)cc(Cl)c(C#N)c1C1CN(CCOC)C1` (centres unmarked) [Example 225, 4-[1-(4-Amino-3-methyl-1H-pyrazolo[3,4-d]pyrimidin-1-yl)ethyl]-6-chloro-3-ethoxy-2-[1-(2-methoxyethyl)azetidin-3-yl]benzonitrile]: the negative-log IC50 (pIC50) is not below 8.00.
In the case of `CCOc1c(C(C)n2nc(C)c3c(N)ncnc32)cc(Cl)c(C#N)c1C1CN(S(C)(=O)=O)C1` (centres unmarked) [Example 248, 4-[1-(4-Amino-3-methyl-1H-pyrazolo[3,4-d]pyrimidin-1-yl)ethyl]-6-chloro-3-ethoxy-2-[1-(methylsulfonyl)azetidin-3-yl]benzonitrile], the pIC50 is not below 8.00.
As for `CCOc1c(C(C)n2nc(C)c3c(N)ncnc32)cc(Cl)c(C#N)c1C1CN(C(=O)NC)C1` (centres unmarked) [Example 257, 3-{3-[1-(4-Amino-3-methyl-1H-pyrazolo[3,4-d]pyrimidin-1-yl)ethyl]-5-chloro-6-cyano-2-ethoxyphenyl}-N-methylazetidine-1-carboxamide], the pIC50 is not below 8.00.
For `COc1c(C(C)n2nc(C)c3c(N)ncnc32)cc(Cl)c(C#N)c1C1CN(C(C)C)C1` (centres unmarked) [Example 264, 4-[1-(4-Amino-3-methyl-1H-pyrazolo[3,4-d]pyrimidin-1-yl)ethyl]-6-chloro-2-(1-isopropylazetidin-3-yl)-3-methoxybenzonitrile], the pIC50 is not below 8.00.
On the same count and under the same terms, then `COc1c(C(C)n2nc(C)c3c(N)ncnc32)cc(Cl)c(C#N)c1C1CN(CC(C)(C)O)C1` (centres unmarked) [Example 271, 4-[1-(4-Amino-3-methyl-1H-pyrazolo[3,4-d]pyrimidin-1-yl)ethyl]-6-chloro-2-[1-(2-hydroxy-2-methylpropyl)azetidin-3-yl]-3-methoxybenzonitrile], with not below 8.00.

The target in another experiment is PI3Kδ (Homo sapiens (Human), UniProt O00329). The experiment in a line: PI3K enzyme assay, [γ-33P]ATP filter plate (Example A2), isoform δ. The format is biochemical. Particulars: as determined by Assay A2; 1000 μM ATP, 2.9 nM PI3Kδ. As for the experimental part:
PI3K isoforms α, β, δ and γ are purchased from Millipore (Bedford, Mass.).
Inhibitors are first diluted serially in DMSO and added to the plate wells before the addition of other reaction components. The final concentration of DMSO in the assay is 0.5%. The PI3K assays are carried out at room temperature in 20 mM MOPS, pH 6.7, 10 mM MgCl2, 5 mM DTT and CHAPS 0.03%. The reaction mixture is prepared containing 50 μM PIP2, kinase and varying concentration of inhibitors. Reactions are initiated by the addition of ATP containing 2.2 μCi [γ-^33P]ATP to a final concentration of 1000 μM. […] Reactions are incubated for 180 minutes and terminated by the addition of 100 μL of 1 M potassium phosphate pH 8.0, 30 mM EDTA quench buffer. A 100 μL aliquot of the reaction solution are then transferred to 96-well Millipore MultiScreen IP 0.45 μm PVDF filter plate (The filter plate is prewetted with 200 μL 100% ethanol, distilled water, and 1 M potassium phosphate pH 8.0, respectively). […] After drying by aspiration and blotting, the plate is air dried in an incubator at 37° C. overnight. Packard TopCount adapter (Millipore) is then attached to the plate followed with addition of 120 μL Microscint 20 scintillation cocktail (Perkin Elmer) in each well. After the plate sealing, the radioactivity of the product is determined by scintillation counting on Topcount (Perkin-Elmer). […]
As for `COc1c([C@@H](C)n2nc(C)c3c(N)ncnc32)cc(Cl)c(C#N)c1C1CN(C[C@@H](C)O)C1` [Example 363, 4-((R)-1-(4-amino-3-methyl-1H-pyrazolo[3,4-d]pyrimidin-1-yl)ethyl)-6-chloro-2-(1-((R)-2-hydroxypropyl)azetidin-3-yl)-3-methoxybenzonitrile], the pIC50 is 6.70 to 7.30.
